# Measured values reported in patent US11433048B2, “CXCR4 receptor-binding compounds useful for increasing interferon level” (CENTRE NATIONAL de la RECHERCHE SCIENTIFIQUE, priority 2016, dated 2022).
# Where a name gives a salt, the structure may show the parent alone. Read-outs that look alike come from different tables or passages of the source.
# Legend:
# HIV-activated pDC [1] = assay type: cell-based, human
# HIV-activated pDC [2] = conditions: ELISA, AMD3100 20 μM pre-treatment, then CB, HIV overnight
# [3] = AMD3100 20 μM pre-incubation, histamine or CB 10 μM, HIV-X4 overnight, normalized to RPL13A
# [4] = AMD3100 alone, HIV-stimulated pDC
# [5] = AMD-3100 20 μM, then CB 10 μM, HIV overnight, normalized to RPL13A
compound,measurement,setting,value
"NC(=NCc1ccc(Cl)cc1)SCCCc1cnc[nH]1 [CB, clobenpropit dihydrobromide]",production of IFN-I by HIV-stimulated pDC,"HIV-activated pDC [1]; amine-type compounds, 10 μM",inhibit
"c1cc(CN2CCCNCCNCCCNCC2)ccc1CN1CCCNCCNCCCNCC1 [AMD3100, plerixafor]",IFN-a mRNA expression inhibited by histamine or CB in HIV-activated pDC (FIG. 1),HIV-activated pDC [1]; [3],could restore
same,IFN-β mRNA expression inhibited by histamine or CB in HIV-activated pDC (FIG. 1),HIV-activated pDC [1]; [3],could restore
same,TRAIL mRNA expression inhibited by histamine or CB in HIV-activated pDC (FIG. 1),HIV-activated pDC [1]; [3],could restore
same,biological activities of histamine and CB on HIV activated-pDC,"HIV-activated pDC [1]; AMD3100 (20 μM) 1 hour, then histamine or CB (10 μM) 1 hour, HIV-1 overnight",drastically abolished
same,TRAIL expression by HIV-activated pDC,HIV-activated pDC [1]; [4],did not block
same,type I IFN expression by HIV-activated pDC,HIV-activated pDC [1]; [4],did not block
same,"IFN-stimulated gene 56 (ISG56) mRNA expression in HIV-activated pDC (restoration, FIG. 3A)",HIV-activated pDC [1]; [5],confirmed
same,"IFN-γ mRNA expression in HIV-activated pDC (restoration, FIGS. 3A-3C)",HIV-activated pDC [1]; [5],confirmed
same,"IL-6 mRNA expression in HIV-activated pDC (restoration, FIG. 3C)",HIV-activated pDC [1]; [5],confirmed
same,IFN-a production inhibited by histamine or CB in HIV-activated pDC (FIG. 2),HIV-activated pDC [2],could restore
"Cl.Cl.NCCc1c[nH]cn1 [histamine, Histamine dihydrochloride]",production of IFN-I by HIV-stimulated pDC,HIV-activated pDC [1],inhibit
